Laboratory results published in US6518279B2, “Cyclopentanone dihydropyridine compounds useful as potassium channel openers” (Abbott Laboratories, priority 1999, dated 2003).
≈ marks a conversion by molar mass, not a printed value. Where two headings read alike, the source gives them in different places.

Tests used:
[1] = tested on: guinea-pig urinary bladder (GPB) cells; assay: Membrane hyperpolarization (MHP) assay, potassium channel opening activity, DiBAC(4)3 / FLIPR; assay type: cell-based; settings: Cavia porcellus; for Emax: maximal steady-state hyperpolarization in GPB cells, relative to 10 μM P1075 (100%), read-out: Maximal Response (% P1075); for EC50: membrane hyperpolarization in GPB cells
Protocol: Compounds were evaluated for potassium channel opening activity using primary cultured guinea-pig urinary bladder (GPB) cells.
For the preparation of urinary bladder smooth muscle cells, urinary bladders were removed from male guinea-pigs (Hartley, Charles River, Wilmington, Mass.) weighing 300-400 g and placed in ice-cold Ca^2+-free Krebs solution (Composition, mM: KCl, 2.7; KH2PO4, 1.5; NaCl, 75; Na2HPO4, 9.6; Na2HPO4·7H2O, 8; MgSO4, 2; glucose, 5; HEPES, 10; pH 7.4). Cells were isolated by enzymatic dissociation as previously described with minor modifications (Klockner, U. and Isenberg, G., Pflugers Arch. (1985), 405, 329-339), hereby incorporated by reference. The bladder was cut into small sections and incubated in 5 mL of the Kreb's solution containing 1 mg/mL collagenase (Sigma, St. Louis, Mo.) and 0.2 mg/mL pronase (Calbiochem, La Jolla, Calif.) with continuous stirring in a cell incubator for 30 minutes. The mixture was then centrifuged at 1300×g for 5 minutes, and the pellet resuspended in Dulbecco's PBS (GIBCO, Gaithersburg, Md.) and recentrifuged to remove residual enzyme. The cell pellet was resuspended in 5 mL growth media (composition: Dulbecco's modified Eagle's medium supplemented with 10% fetal bovine serum, 100 units/mL penicillin, 100 units/mL streptomycin and […] amphotericin B) and further dissociated by pipetting the suspension through a flame-polished Pasteur pipette and passing it through a polypropylene mesh membrane (Spectrum, Houston, Tex.). The cell density was adjusted to 100,000 cells/mL by resuspension in growth media. Cells were plated in clear-bottomed black 96-well plates (Packard) for membrane potential studies at a density of 20,000 cells/well and maintained in a cell incubator with 90% air: 10% CO2 until confluent. Cells were confirmed to be of smooth muscle type by cytoskeletal staining using a monoclonal mouse anti human-α-smooth muscle actin (Biomeda, Foster City, Calif.)
Functional activity at potassium channels was measured by evaluating changes in membrane potential using the bis-oxonol dye DiBAC(4)3 (Molecular Probes) in a 96-well cell-based kinetic assay system, Fluorescent Imaging Plate Reader (FLIPR) (K. S. Schroeder et al., J. Biomed. Screen., v. 1 pp. 75-81 (1996)), hereby incorporated by reference. DiBAC(4)3 is an anionic potentiometric probe which partitions between cells and extracellular solution in a membrane potential-dependent manner. With increasing membrane potential (for example, K^+ depolarization), the probe further partitions into the cell; this is measured as an increase in fluorescence due to dye interaction with intracellular lipids and proteins. Conversely, decreasing membrane potential (hyperpolarization by potassium channel openers) evokes a decrease in fluorescence.
Confluent guinea-pig urinary bladder cells cultured in black clear-bottomed 96-well plates were rinsed twice with […] assay buffer (composition, mM: HEPES, 20; NaCl, 120; KCl, 2; CaCl2, 2; MgCl2, 1; glucose, 5; pH 7.4 at 25° C.) containing 5 μM DiBAC(4)3 and incubated with […] of the buffer in a cell incubator for 30 minutes at 37° C. to ensure dye distribution across the membrane. After recording the baseline fluorescence for 5 minutes, the reference or test compounds, prepared at 10 times the concentration in the assay buffer, were added directly to the wells. Changes in fluorescence were monitored for an additional 25 minutes. Hyperpolarization responses were corrected for any background noise and were normalized to the response observed with 10 μM of the reference compound P1075 (assigned as 100%), a potent opener of smooth muscle KATP channels (Quast et al., Mol. Pharmacol., v. 43 pp. 474-481 (1993)), hereby incorporated by reference.
Routinely, five concentrations of P1075 or test compounds (log or half-log dilutions) were evaluated and the maximal steady-state hyperpolarization values (expressed as % relative to P1075) plotted as a function of concentration. […]

[2] = tested on: Landrace pig bladder strips; assay: Functional potassium channel opening activity in isolated bladder strips (field-stimulated twitch); settings: for Index: ED50 of P1075 divided by ED50 of test agonist in a given tissue, averaged; for EC50: Sus scrofa, negative logarithm of ED50, Landrace pig bladder strips, read-out: pD2 (converted); for Efficacy (% P1075): maximal efficacy on the stimulated twitch, Landrace pig bladder strips
Protocol: Compounds were evaluated for functional potassium channel opening activity using tissue strips obtained from Landrace pig bladders.
Landrace pig bladders were obtained from female Landrace pigs of 9-30 kg. Landrace pigs were euthanized with an intraperitoneal injection of pentobarbital solution, Somlethal®, J. A. Webster Inc., Sterling Mass. The entire bladder was removed and immediately placed into Krebs Ringer bicarbonate solution (composition, mM: NaCl, 120; NaHCO3, 20; dextrose, 11; KCl, 4.7; CaCl2, 2.5; MgSO4, 1.5; KH2PO4, 1.2; K2EDTA, 0.01, equilibrated with 5% CO2/95% O2 pH 7.4 at 37° C.). Propranolol (0.004 mM) was included in all of the assays to block β-adrenoceptors. The trigonal and dome portions were discarded. Strips 3-5 mm wide and 20 mm long were prepared from the remaining tissue cut in a circular fashion. The mucosal layer was removed. One end was fixed to a stationary glass rod and the other to a Grass FT03 transducer at a basal preload of 1.0 gram. Two parallel platinum electrodes were included in the stationary glass rod to provide field stimulation of 0.05 Hz, 0.5 milli-seconds at 20 volts. This low frequency stimulation produced a stable twitch response of 100-500 centigrams. Tissues were allowed to equilibrate for at least 60 minutes and primed with 80 mM KCl. A control concentration response curve (cumulative) was generated for each tissue using the potassium channel opener P1075 as the control agonist. […] After a 60 minute rinsing period, a concentration response curve (cumulative) was generated for the test agonist in the same fashion as that used for the control agonist P1075. The maximal efficacy of each compounds (expressed as % relative to P1075) is reported. The amount of agent necessary to cause 50% of the agent's maximal response (ED50) was calculated using “ALLFIT” (DeLean et al., Am. J. Physiol. 235, E97 (1980)), hereby incorporated by reference, and agonist potencies were expressed as pD2 (the negative logarithm). Agonist potencies were also expressed as an index relative to P1075. The index was calculated by dividing the ED50 for P1075 by the ED50 for the test agonist in a given tissue. Each tissue was used for only one test agonist, and the indices obtained from each tissue were averaged to provide an average index of potency.

[3] = Aqueous solubility, 50 mM NaH2PO4 buffers, reverse-phase HPLC; assay type: physicochemical; settings: aqueous buffer, thermodynamic from solid, shaking 60 hours, room temperature
Protocol: Aqueous solubilities were determined by shaking 60 hours at room temperature in 50 mM NaH2PO4 buffers at pH's 6.5 and 7.4. Assays were performed using reverse-phase HPLC. The solubilities are expressed in nanomoles per milliliter in Table 4.

bladder contractions = assay: In-vivo bladder efficacy protocol (isovolumetric contractions model); parameters: species or system rat; settings: dose reducing area under the curve of bladder contractions by 30%, iv, anesthetized male CD rats
Description: In-vivo bladder efficacy protocol (isovolumetric contractions model)
Male CD rats (400-450 g) were anesthetized with urethane (0.6 g/kg ip+0.6 g/kg sc). The left femoral artery and vein were cannulated with polyethylene (PE-50) tubing for the measurement of arterial pressure and test compound administration respectively. A third polyethylene catheter (PE-60) was inserted 3-4 mm into the apex of the bladder dome and secured using a 5-0 silk purse string suture. The bladder was emptied via this catheter and additionally by applying slight manual pressure on the lower abdomen. The urinary catheter was connected using a Y-tube connector to both a pressure transducer and a syringe pump. […] After the contractions stabilized to a consistent pattern, bladder pressure and arterial pressure were monitored for 20 minutes before and after a dose of the vehicle (equal parts of β-cyclodextrin stock solution (100 g β-cyclodextrin dissolved in 200 ml) and sterile water) alone. […] Mean arterial pressure and area under the curve of the bladder contractions were determined from the respective waveforms using a Modular Instruments, Inc. computerized data acquisition system and averaged over the last ten minutes of each twenty minute period. […]
Example 3, of the present invention (Table 3, FIG. 1), was dosed at 0.01, 0.1 and 1 μmol/kg. The AUC ED30 for Example 3 was determined to be 0.1 μmol/kg.

[4] = pH 6.5, 50 mM NaH2PO4 buffer, read-out: Aqueous solubility pH 6.5
[5] = pH 7.4, 50 mM NaH2PO4 buffer, read-out: Aqueous solubility pH 7.4

| Structure (SMILES) | melting point [°C] | EC50 [1] [nM] | EC50 [2] [nM] | solubility at 60 h [3, 4] [µM] | solubility at 60 h [3, 5] [µM] | Emax [1] [%] | Index [2] | Efficacy (% P1075) [2] [% P1075] | Effect on stimulated twitch ([2]; 10^−9 to 10^−5 M, cumulative, dose dependent) | AUC ED30 (bladder contractions) [µmol/kg] |
| --- | --- | --- | --- | --- | --- | --- | --- | --- | --- | --- |
| CC1=C(C(=O)O)C(c2ccc(F)c(Br)c2)C2=C(CCC2=O)N1 (centres unmarked) [Example 10, 4-(3-bromo-4-fluorophenyl)-2-methyl-5-oxo-4,5,6,7-tetrahydro-1H-cyclopenta[b]pyridine-3-carboxylic acid] | 211 to 214 | 2680 |  |  |  | 104 |  |  |  |  |
| O=C1CCC2=C1C(c1ccc(Cl)c(Cl)c1)C1=C(CCC1=O)N2 [Example 6, 8-(3,4-Dichlorophenyl)-2,3,4,5,6,8-hexahydrodicyclopenta[b,e]pyridine-1,7-dione] |  | 100 |  |  |  | 94 |  |  |  |  |
| O=C1C=CC2=C1C(c1ccc(F)c(Br)c1)C1=C(CCCC1=O)N2 (centres unmarked) [Example 9, 9-(3-bromo-4-fluorophenyl)-5,6,7,9-tetrahydro-1H-cyclopenta[b]quinoline-1,8(4H)-dione] |  | 63 |  |  |  | 100 |  |  |  |  |
| CCC(C)(C)N=C(NC#N)Nc1cccnc1 [Example P1075, reference compound] |  |  |  |  |  |  |  |  | completely eliminated the stimulated twitch |  |
| O=C1CCC2=C1C(c1ccc(F)c(I)c1)C1=C(CCC1=O)N2 [Example 8, 8-(3-Iodo-4-fluorophenyl)-2,3,4,5,6,8-hexahydrodicyclopenta[b,e]pyridine-1,7-dione] |  | 13 |  |  |  | 93 |  |  |  |  |
| O=C1CCC2=C1C(c1ccc3nonc3c1)C1=C(CCC1=O)N2 [Example 7, 8-(2,1,3-benzoxadiazol-5-yl)-2,3,4,5,6,8-hexahydrodicyclopenta[b,e]pyridine-1,7-dione] | 272 to 273 | 130 |  |  |  | 98 |  |  |  |  |
| O=C1CCC2=C1C(c1ccc(F)c(Br)c1)C1=C(CCC1=O)N2 [Example 1, 8-(3-Bromo-4-fluorophenyl)-2,3,4,5,6,8-hexahydrodicyclopenta[b,e]pyridine-1,7-dione] |  | 71 | 158 | 205 (≈ 74.3 µg/mL) | 227 (≈ 82.2 µg/mL) | 102 | 0.48 | 98 |  |  |

More lines, main results first:

| melting point [°C] | EC50 [1] [nM] | EC50 [2] [nM] | solubility at 60 h [3, 4] [µM] | solubility at 60 h [3, 5] [µM] | Structure (SMILES) | Emax [1] [%] | Index [2] | Efficacy (% P1075) [2] [% P1075] | Effect on stimulated twitch ([2]; 10^−9 to 10^−5 M, cumulative, dose dependent) | AUC ED30 (bladder contractions) [µmol/kg] |
| --- | --- | --- | --- | --- | --- | --- | --- | --- | --- | --- |
|  | 5300 | 6310 | 1300 (≈ 377 µg/mL) | 1290 (≈ 375 µg/mL) | N#Cc1cccc(C2C3=C(CCC3=O)NC3=C2C(=O)CC3)c1 [Example 2, 8-(3-Cyanophenyl)-2,3,4,5,6,8-hexahydrodicyclopenta[b,e]pyridine-1,7-dione] | 65 | 0.017 | 96 |  |  |
|  | 340 |  | 158 (≈ 49 µg/mL) | 164 (≈ 50.9 µg/mL) | O=C1CCC2=C1C(c1cccc([N+](=O)[O-])c1)C1=C(CCC1=O)N2 [Example 4, 8-(3-Nitrophenyl)-2,3,4,5,6,8-hexahydrodicyclopenta[b,e]pyridine-1,7-dione] | 123 |  |  |  |  |
|  | 53 | 251 | 129 (≈ 44.5 µg/mL) | 129 (≈ 44.5 µg/mL) | O=C1CCC2=C1C(c1ccc(Cl)c([N+](=O)[O-])c1)C1=C(CCC1=O)N2 [Example 3, 8-(4-Chloro-3-nitrophenyl)-2,3,4,5,6,8-hexahydrodicyclopenta[b,e]pyridine-1,7-dione] | 113 | 0.35 | 98 |  | 0.1 |
|  | 140 |  |  |  | O=C1CCC2=C1C(c1ccc(F)c(Cl)c1)C1=C(CCC1=O)N2 [Example 5, 8-(3-Chloro-4-fluorophenyl)-2,3,4,5,6,8-hexahydrodicyclopenta[b,e]pyridine-1,7-dione] | 72 |  |  |  |  |
